Like-named read-outs stand apart in the source and are kept apart here.
How the values were obtained:
[1] = test system: Caco-2 cells
Description: (§1) Given the role of mitochondria in both oxidative stress and cell death (apoptosis), we evaluated the mitochondrial membrane potential (MMP) using the JC-1 probe (see methods for details). This probe accumulates in the mitochondria in the form of J-aggregates when in normal mitochondrial conditions (polarized) and presents red fluorescence. By contrast, in unhealthy cells, when depolarization occurs, JC-1 enters the mitochondria in lower concentrations forming monomers inducing a fluorescence shift to green fluorescence, thus the loss of MMP is observed through flow cytometry as a reduction in red (FL2) and an increase in green (FL1) fluorescence, or as a reduction in red/green (FL2/FL1) fluorescence ratio [45, 46].
(§2) Pesticide-induced oxidative stress and apoptosis/necrosis events were analysed by flow cytometry. For this, one colour and two-colour flow cytometry assays were performed, using a BD Accuri™ C6 cytometer (Franklin Lakes, NJ, USA) equipment for data acquisition. Each assay was performed at least in triplicate (n = 3) and 5000 gated events were collected from each sample. Data analysis was performed using BD Accuri™ C6 Software, version 1.0.264.21 supplied by Becton Dickinson (Franklin Lakes, NJ, USA).
(§3) Caco-2 and HepG2 cells (handled as described in Section 3.2.1) were seeded in 12-well microplates (at 5 × 10^4 cells/mL density; 750 µL/well), and allowed to adhere and stabilize for 48 h in the incubator. […] Negative control cells (non-exposed cells) were included in each assay. After a 24 h incubation with test solutions, cells were washed with phosphate buffer saline (PBS) solution and then detached from the microplates (as in Section 3.2.1) and placed in centrifuge tubes and centrifuged (5 min, 3000 rpm, bench micro-centrifuge). After eliminating the supernatant, cells were washed in PBS solution through another centrifuge cycle. Then cells were divided before being incubated with the specific markers to assess oxidative stress markers and cell apoptosis/necrosis.
(§4) Mitochondrial membrane potential was analysed using JC-1 probe following the procedures as described by the manufacturer. Caco-2 and HepG2 cells suspended in PBS were centrifuged (5 min, 3000 rpm, bench micro-centrifuge), the supernatant was removed and 200 μL of JC-1 solution (2 μM; diluted in FBS-free culture media) was added to each sample. The samples were incubated for 20 min at 37 °C (in a CO2 incubator) and then analysed by flow cytometry. Negative control, non-exposed, and positive control cells exposed to the protonophore FCCP (5 μM; carbonyl cyanide p-trifluoromethoxyphenylhydrazone) were performed in each set of experiments.

[2] = test system: HepG2 cells; conditions: for HepG2 FL2/FL1 ratio: mean ± SD
Description: as §1, §2, §3, §4

[3] = Alamar Blue cell viability/cytotoxicity assay; type: cell-based, human; conditions: human
Procedure: (§5) In this study, to assess the cytotoxic activity of GLY, IMD, and IMZ, human epithelial colorectal adenocarcinoma (Caco-2), cell lines service (CLS), (Eppelheim, Germany) and human hepatocellular carcinoma (HepG2) (ATCC, Rockville, Maryland, USA) cells were used. Cells were cultured in complete culture media (Dulbecco’s Modified Eagle Media (DMEM), supplemented with 1 mM L-glutamine, 10% (v/v) foetal bovine serum (FBS), and antibiotics (penicillin at 100 U/mL, and streptomycin at 100 μg/mL)) and maintained at 5% CO2/95% air; 37 °C, controlled humidity, in an incubator. Cells were grown in T25 culture flasks to near confluence. Then, these adherent cells were treated with trypsin (trypsin-EDTA), for detachment and subculture, which was stopped using complete culture medium (1:1, trypsin:culture media) as soon as cells were detached (about 6 and 8 minutes of trypsin treatment for HepG2 and Caco-2 cells, respectively). Detached cells were gently re-suspended with a Pasteur pipette and then a sample was counted using an automated cell counter (TC10™, BIORAD, Portugal). A suspension of cells in fresh culture media, at 5 × 10^4 cells/mL was prepared to seed into 96-well microplates (100 µL/well). After seeding, cells were placed in the incubator for 48 h (to adhere and stabilize) before being used, for other details see [66, 67].
(§6) Cell viability was assessed using the Alamar Blue® (AB) assay, after exposure to the pesticides. In summary, cells seeded into 96-well microplates were subjected to various concentrations of the pesticides (GLY: 0–1 mM; IMD: 0–1 mM; IMZ: 0–0.3 mM). To prepare the test solutions, the appropriate volume of the pesticide stock solution was diluted in FBS-free culture media just before its application to the cells. Stock solution of GLY was prepared in water (at 40 mM), and stock solutions of IMD and IMZ were prepared in DMSO (at 20 mM). After 24 h or 48 h of exposure, the test solutions were removed and the Alamar Blue solution (100 µL/well; 10% (v/v) in FBS-free medium) was immediately added to the cells, followed by a further 5 h incubation. The absorbance was then read at 570 and 620 nm using a microplate reader (Multiskan EX; MTX Lab Systems, Inc., Bradenton, FL, USA) and the percentage of the AB reduction was calculated according to the manufacturer’s instructions, as described before. Cell viability, at each condition, was calculated and expressed as percentage of control cells (non-exposed cells).
(§7) The concentrations needed to reduce cell viability by 50% (IC50) were calculated from three independent experiments (each one performed in quadruplicates), as described.

[4] = test system: Caco-2 cells; assay: Intracellular ROS content, DCFDA, flow cytometry; type: cell-based, human; conditions: for change in ROS content vs control (in words): Caco-2, 24 h, tested concentrations
Procedure: (§8) To assess pesticides-induced oxidative stress, the intracellular content in reactive oxygen species (ROS), content in glutathione (GSH), and lipid peroxidation was quantified by flow cytometry, following the methods described by Domínguez-Perles, et al. and Queiroz, et al.. Briefly, to assess ROS content, cells re-suspended in PBS (from Section 3.3.1) were centrifuged (5 min, 3000 rpm, bench micro-centrifuge) and, after eliminating the supernatant, 200 μL of 10 µM DCFDA solution (prepared in FBS-free DMEM) was added to each sample. After a 45 min incubation at 37 °C (in the dark, in an incubator), cells were centrifuged to remove excess of probe and re-suspended in PBS. Finally, 5 μL of propidium iodide (PI; 50 μg/mL) was added to each sample 3 min before flow cytometry acquisition.

[5] = test system: HepG2 cells; assay: Intracellular ROS content, DCFDA, flow cytometry; type: cell-based, human; conditions: for change in ROS content vs control (in words): HepG2, 24 h, tested concentrations
Procedure: as §8

[6] = test system: Caco-2 cells; assay: Glutathione (GSH) content, Mercury Orange, flow cytometry; type: cell-based, human; conditions: Caco-2, 24 h, tested concentrations
Procedure: (§9) To assess GSH content, cells re-suspended in PBS (see Section 3.3.1) were incubated with 40 μM Mercury Orange (1-(4-chloromercuryphenyl-azo-2-naphtol) for 5 min (in the dark, room temperature), as described by du Plessis, et al..

[7] = test system: HepG2 cells; assay: as above; type: cell-based, human; conditions: HepG2, 24 h, tested concentrations
Procedure: as §9

[8] = test system: Caco-2 cells; assay: Lipid peroxidation, DHPE-FITC probe, flow cytometry; type: cell-based, human
Procedure: (§10) Lipid peroxidation was evaluated using the DHPE-FITC probe. Cells re-suspended in PBS (see Section 3.3.1) were incubated with 20 μM DHPE-FITC, for 20 min in the dark at room temperature (as describe).

[9] = test system: HepG2 cells; assay: as above; type: cell-based, human
Procedure: as §10

[10] = test system: L-929 cells (fibroblast cell line); set-up: method as in PMID 33177931; conditions: 500 μM, ref [33]; cited from earlier work
[11] = test system: HepG2 cells; set-up: method as in PMID 34635006; conditions: HepG2, 500 μM, 24 h; ref [31]; cited from earlier work
[12] = ref [47],[48],[49],[50]; cited from earlier work
[13] = test system: Caco-2 cells; assay: Alamar Blue cell viability/cytotoxicity assay; type: cell-based, human; conditions: mean ± SD (n = 4), read-out: IC50 of pesticide-induced cytotoxicity
Procedure: as §5, §6, §7

[14] = test system: HepG2 cells; assay: Alamar Blue cell viability/cytotoxicity assay; type: cell-based, human; conditions: mean ± SD (n = 4), read-out: IC50 of pesticide-induced cytotoxicity
Procedure: as §5, §6, §7

[15] = test system: Caco-2 cells; assay: Apoptosis/necrosis, Annexin-V-FITC/PI double staining, flow cytometry; type: cell-based, human; conditions: Caco-2, 24 h, tested concentrations; listed as GLY
Procedure: (§11) The samples where then incubated for 20 min at room temperature. After this period, 5 μL of propidium iodide (PI; at 50 μg/mL) solution were added to each sample 3 min before acquisition.

[16] = test system: HepG2 cells; assay: as above; type: cell-based, human; conditions: HepG2, 24 h, tested concentrations; listed as GLY
Procedure: as §11

[17] = test system: HepG2 cells; conditions: occupational concentrations; ref [29]; cited from earlier work
[18] = HepG2, FCCP positive control (5 μM)
[19] = IC50 of pesticide-induced cytotoxicity

## N#CC(C#N)=NNc1ccc(OC(F)(F)F)cc1 [FCCP, carbonyl cyanide p-trifluoromethoxyphenylhydrazone, reference compound]
[1]; Caco-2, FCCP positive control (5 μM)
  FL2/FL1 ratio reduction (% of control): 93.04±0.93 % of control
[1]; Caco-2, FCCP positive control (5 μM), mean ± SD
  Caco-2 FL2/FL1 ratio: 0.06±0.02
[2]; [18]
  FL2/FL1 ratio reduction (% of control): 79.87±4.12 % of control
  HepG2 FL2/FL1 ratio: 0.04±0.01

## O=[N+]([O-])NC1=NCCN1Cc1ccc(Cl)nc1 [Imidacloprid, imidacloprid]
[3]
  IC50 at 24 h: 624 ± 24 µM
  IC50 at 48 h: 620 ± 11 µM
[3]; [19]
  IC50 at 24 h: > 1000 µM
  IC50 at 48 h: 832 ± 30 µM
[4]; Caco-2, 750 μM, 24 h
  increase in ROS content compared with control: 1.42 fold
[4]; listed as IMD
  change in ROS content vs control (in words): significant (p < 0.05) increase in ROS content
[5]; HepG2, 500 μM, 24 h
  increase in ROS content compared with control: 1.59 fold
[5]; listed as IMD
  change in ROS content vs control (in words): significant (p < 0.05) increase in ROS content
[6]
  change in GSH content vs control (in words): increased GSH levels
[7]
  change in GSH content vs control (in words): increased GSH levels
[8]
  lipid peroxidation (LP) vs control (in words): induced significant LP
[9]
  lipid peroxidation (LP) vs control (in words): not statistically significant
[1]; Caco-2, 500 μM, 24 h
  FL2/FL1 ratio reduction (% of control): 21.36±0.05 % of control
[1]; Caco-2, 750 μM, 24 h
  FL2/FL1 ratio reduction (% of control): 17.70±2.49 % of control
[2]
  change in mitochondrial membrane potential (in words): Depolarized MMP
[2]; HepG2, 100 μM, 24 h
  FL2/FL1 ratio reduction (% of control): 23.79±1.79 % of control
  HepG2 FL2/FL1 ratio: 0.17±0.01
[2]; HepG2, 250 μM, 24 h
  FL2/FL1 ratio reduction (% of control): 27.49±1.48 % of control
  HepG2 FL2/FL1 ratio: 0.16±0.02
[2]; HepG2, 500 μM, 24 h
  FL2/FL1 ratio reduction (% of control): 19.93±1.29 % of control
  HepG2 FL2/FL1 ratio: 0.18±0.01
[10]
  LDH release increase: 50%
[11]
  ROS content (in words): doubled ROS content
[12]
  H-bond (donor count): 1
  H-donor (acceptor count): 4

## O=C(O)CNCP(=O)(O)O [Glyphosate, N-phosphonomethyl-glycine]
[3]; Caco-2, 24 h, read-out: IC50 (cytotoxicity)
  IC50 at 24 h: > 1000 µM
[3]; Caco-2, 48 h, read-out: IC50 (cytotoxicity)
  IC50 at 48 h: > 1000 µM
[3]; HepG2, 24 h, read-out: IC50 (cytotoxicity)
  IC50 at 24 h: > 1000 µM
[3]; HepG2, 48 h, read-out: IC50 (cytotoxicity)
  IC50 at 48 h: > 1000 µM
[13]; Caco-2, 24 h exposure
  IC50: > 1000 µM
[13]; Caco-2, 48 h exposure
  IC50: > 1000 µM
[14]; HepG2, 24 h exposure
  IC50: > 1000 µM
[14]; HepG2, 48 h exposure
  IC50: > 1000 µM
[4]; listed as GLY
  change in ROS content vs control (in words): control-like ROS levels
[5]; listed as GLY
  change in ROS content vs control (in words): control-like ROS levels
[6]
  change in GSH content vs control (in words): did not show GSH levels different from control cells
[7]
  change in GSH content vs control (in words): initial decrease in GSH content
[8]; Caco-2, 24 h, tested concentrations
  lipid peroxidation (LP) vs control (in words): did not produce significant LP
[9]; HepG2, 24 h, tested concentrations
  lipid peroxidation (LP) vs control (in words): did not produce significant LP
[1]; Caco-2, 24 h, tested concentrations, listed as GLY
  change in mitochondrial membrane potential (in words): did not induce significant changes on MMP
[15]
  apoptosis/necrosis induction (in words): did not produce significant changes
[16]
  apoptosis/necrosis induction (in words): did not induce significant changes on cell population distribution
[17]
  HepG2 cell viability (in words): no reduction in HepG2 cell viability

From publication PMC9331544, “Molecular Physicochemical Properties of Selected Pesticides as Predictive Factors for Oxidative Stress and Apoptosis-Dependent Cell Death in Caco-2 and HepG2 Cells” (International Journal of Molecular Sciences, 2022)
